Results taken from patent publication US11230526B1, “Cylcoalkenyl derivatives useful as agonists of the GPR120 and/or GPR40 receptors” (Janssen Pharmaceutica NV, priority 2018, dated 2022).

Legend:
Assay type in all cases: cell-based
human GPR40 = biological target: T1, human GPR40 (Homo sapiens, UniProt O14842); assay: GPR40 calcium flux assay, human GPR40; details: HEK293 cells stably expressing GPR40; table does not say human or rat
T1 construct: expressed in transfected cells
Procedure, shortened: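 Cells preincubated 1 h at 37° C. in HBSS, 20 mM HEPES, 0.1% BSA, then Fluo 8 calcium dye 30 min at 37° C. and 15 min at room temperature.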

Human GPR120 short form [1] = biological target: T2, Human GPR120 short form (Homo sapiens, UniProt Q5NUL3); assay: Human GPR120 calcium flux assay, Procedure Calcium A (2500 cells/well)
T2 construct: expressed in transfected cells
T2 sequence (Q5NUL3 1-361): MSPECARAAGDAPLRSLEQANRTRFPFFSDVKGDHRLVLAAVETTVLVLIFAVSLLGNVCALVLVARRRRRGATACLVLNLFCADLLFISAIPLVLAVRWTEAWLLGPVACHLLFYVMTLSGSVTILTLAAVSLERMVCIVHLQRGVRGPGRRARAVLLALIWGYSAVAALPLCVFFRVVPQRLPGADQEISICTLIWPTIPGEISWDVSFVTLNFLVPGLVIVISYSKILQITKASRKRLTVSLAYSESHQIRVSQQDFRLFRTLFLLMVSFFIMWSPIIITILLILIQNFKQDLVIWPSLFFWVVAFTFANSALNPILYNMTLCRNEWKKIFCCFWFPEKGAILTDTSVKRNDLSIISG
Procedure, shortened: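 HEK293 cells stably expressing human GPR120 short isoform (NM_001195755.1), 2500 cells/well, serum-starved 1 h at 37 °C and loaded with Fluo-4 NW plus probenecid. FLIPR fluorescence read for 300 s after compound addition; response = Fmax−Fmin. EC50 from four-parameter concentration–response fit.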

Human GPR120 short form [2] = biological target: T2, Human GPR120 short form; assay: Human GPR120 calcium flux assay, Procedure Calcium B (4200 cells/well)
Procedure, shortened: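 HEK293 cells stably expressing human GPR120 (NM_001195755.1), 4200 cells/well, starved 1 h and loaded with Fluo-4 NW plus probenecid. Ligand-evoked calcium flux read on FLIPR for 300 s after a 10 s baseline. RFU = Fmax−Fmin; EC50 from four-parameter concentration-response fit.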

T1 sequence (O14842 whole entry): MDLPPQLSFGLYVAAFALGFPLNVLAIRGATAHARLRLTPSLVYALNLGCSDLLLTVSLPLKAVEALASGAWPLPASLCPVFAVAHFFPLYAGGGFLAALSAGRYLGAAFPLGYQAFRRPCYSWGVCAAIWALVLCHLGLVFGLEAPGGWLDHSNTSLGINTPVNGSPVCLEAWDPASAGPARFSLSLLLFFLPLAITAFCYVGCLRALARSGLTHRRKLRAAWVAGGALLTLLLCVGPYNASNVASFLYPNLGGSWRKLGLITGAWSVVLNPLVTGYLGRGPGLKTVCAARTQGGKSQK

SMILES	EC50 (human GPR40) [nM]	EC50 (Human GPR120 short form [1]) [nM]	EC50 (Human GPR120 short form [2]) [nM]
O=C(O)CCc1cc(F)c(OCC2=C(c3ccc(Cl)cc3)CCCC2)c(F)c1 [Compound 510, 3-[4-[[2-(4-chlorophenyl)cyclohexen-1-yl]methoxy]-3,5-difluoro-phenyl]Propanoic Acid]	> 10000	561	33
O=C(O)CCc1ccc(OCC2=C(c3ccc(Cl)cc3)CCCC2)c(F)c1 [Compound 511, 3-[4-[[2-(4-chlorophenyl)cyclohexen-1-yl]methoxy]-3-fluoro-phenyl]Propanoic Acid]	> 10000	572	35
Cc1c(CCC(=O)O)ccc(OCC2=C(c3ccc(N(C)C)cc3)CCCC2)c1C [Compound 512, 3-[4-[[2-(4-dimethylaminophenyl)cyclohexen-1-yl]methoxy]-2,3-dimethyl-phenyl]Propanoic Acid]	> 5000	808	140
O=C(O)CCc1ccc(OCC2=C(c3ccc(Cl)cc3)CCCC2)c(F)c1F [Compound 513, 3-[4-[[2-(4-chlorophenyl)cyclohexen-1-yl]methoxy]-2,3-difluoro-phenyl]Propanoic Acid]	> 5000	331	42
O=C(O)CCc1ccc(OCC2=C(c3ccc(Cl)cc3)CCCC2)c2c1CCC2 [Compound 514, 3-[7-[[2-(4-chlorophenyl)cyclohexen-1-yl]methoxy]indan-4-yl]Propanoic Acid]	> 5000	340	53
